The source of these data is publication PMC8539420, “Discovery of a Potent and Selective JNK3 Inhibitor with Neuroprotective Effect Against Amyloid β-Induced Neurotoxicity in Primary Rat Neurons” (International Journal of Molecular Sciences, 2021).

For this experiment, the target named is T1, JNK3(h) (Homo sapiens, UniProt P53779).
T1 construct: purchased Reaction Biology Corp
Put plainly: Kinase HotSpot radiometric assay, JNK3. The format is biochemical.

The mark [1] stands for this setting: ATP 10 μM, substrate ATF2 5 μM, read-out: JNK3 inhibitory activity IC50.

Molecules are shown by their SMILES. Read-outs that look alike come from different tables or passages of the source.

T1 sequence (P53779 whole entry): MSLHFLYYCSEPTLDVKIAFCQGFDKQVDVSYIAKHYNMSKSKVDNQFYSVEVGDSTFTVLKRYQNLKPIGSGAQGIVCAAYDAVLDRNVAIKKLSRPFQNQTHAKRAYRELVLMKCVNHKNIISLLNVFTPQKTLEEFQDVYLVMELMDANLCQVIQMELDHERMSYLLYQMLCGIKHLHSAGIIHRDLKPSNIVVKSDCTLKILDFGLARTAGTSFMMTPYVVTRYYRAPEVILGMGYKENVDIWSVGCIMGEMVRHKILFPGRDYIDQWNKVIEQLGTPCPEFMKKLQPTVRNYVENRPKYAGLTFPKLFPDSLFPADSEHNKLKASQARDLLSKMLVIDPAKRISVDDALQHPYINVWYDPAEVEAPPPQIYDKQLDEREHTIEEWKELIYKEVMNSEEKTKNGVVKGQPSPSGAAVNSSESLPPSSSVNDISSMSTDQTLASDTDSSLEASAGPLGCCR

Consider `Oc1ccc2c(c1)nc(-c1ccc3ccccc3c1)n2-c1ccnc(NC2CCOCC2)n1` [9a], for which, under setting [1], the IC50 came to 1480 nM.

On to `Oc1ccc2c(c1)nc(-c1ccc3c(c1)OCCO3)n2-c1ccnc(NC2CCOCC2)n1` [9b, 2-(2,3-Dihydrobenzo[b][1,4]dioxin-6-yl)-1-(2-((tetrahydro-2H-pyran-4-yl)amino)pyrimidin-4-yl)-1H-benzo[d]imidazol-5-ol], for which, under setting [1], the IC50 was above 10000 nM.

`Oc1ccc2c(c1)nc(-c1ccc3occc3c1)n2-c1ccnc(NC2CCOCC2)n1` [9c, 2-(Benzofuran-5-yl)-1-(2-((tetrahydro-2H-pyran-4-yl)amino)pyrimidin-4-yl)-1H-benzo[d] imidazol-5-ol]: under setting [1], the IC50 turned out to be 4310 nM.

Turning to `Oc1ccc2c(c1)nc(-c1ccc3ccccc3c1)n2-c1ccnc(NC2CCCCC2)n1` [10a, 1-(2-(cyclohexylamino)pyrimidin-4-yl)-2-(naphthalen-2-yl)-1H-benzo[d]imidazol-5-ol], the IC50 under setting [1] turned out to be 420 nM.

For `Oc1ccc2c(c1)nc(-c1ccc3c(c1)OCCO3)n2-c1ccnc(NC2CCCCC2)n1` [10b, 1-(2-(Cyclohexylamino)pyrimidin-4-yl)-2-(2,3-dihydrobenzo[b][1, 4]dioxin-6-yl)-1H-benzo [d]imidazol-5-ol], the IC50 under setting [1] came to 1210 nM.

As to `Oc1ccc2c(c1)nc(-c1ccc3occc3c1)n2-c1ccnc(NC2CCCCC2)n1` [10c, 2-(Benzofuran-5-yl)-1-(2-(cyclohexylamino)pyrimidin-4-yl)-1H-benzo[d]imidazol-5-ol], the IC50 under setting [1] amounted to 299 nM.

In the case of `Oc1ccc2c(c1)nc(-c1ccc(Cl)c(Cl)c1)n2-c1ccnc(NC2CCCCC2)n1` [10d, 1-(2-(Cyclohexylamino)pyrimidin-4-yl)-2-(3,4-dichlorophenyl)-1H-benzo[d]imidazol-5-ol], the IC50 under setting [1] came out at 139 nM.

As to `Oc1ccc2c(c1)nc(-c1ccc(F)c(C(F)(F)F)c1)n2-c1ccnc(NC2CCCCC2)n1` [10e, 1-(2-(Cyclohexylamino)pyrimidin-4-yl)-2-(4-fluoro-3-(trifluoromethyl)phenyl)-1H-benzo [d]imidazol-5-ol], the IC50 under setting [1] was 799 nM.

`Oc1ccc2c(c1)nc(-c1ccc3ccccc3n1)n2-c1ccnc(NC2CCCCC2)n1` [10f, 1-(2-(Cyclohexylamino)pyrimidin-4-yl)-2-(quinolin-2-yl)-1H-benzo[d]imidazol-5-ol]: the IC50 under setting [1] worked out at 424 nM.

On to `O=C(C1CC1)N1CCC[C@H](Nc2nccc(-n3c(-c4ccc5ccccc5c4)nc4cc(O)ccc43)n2)C1` [13a, (S)-cyclopropyl(3-((4-(5-hydroxy-2-(naphthalen-2-yl)-1H-benzo[d]imidazol-1-yl)pyrimidin-2-yl)amino)piperidin-1-yl)methanone], for which, under setting [1], the IC50 turned out to be 391 nM.

For `O=C(C1CC1)N1CCC[C@H](Nc2nccc(-n3c(-c4ccc5c(c4)OCCO5)nc4cc(O)ccc43)n2)C1` [13b, (S)-Cyclopropyl(3-((4-(2-(2,3-dihydrobenzo[b][1, 4]dioxin-6-yl)-5-hydroxy-1H-benzo[d]imidazol-1-yl)pyrimidin-2-yl)amino)piperidin-1-yl)methanone], the IC50 under setting [1] stood at 679 nM.

In the case of `O=C(C1CC1)N1CCC[C@H](Nc2nccc(-n3c(-c4ccc5occc5c4)nc4cc(O)ccc43)n2)C1` [13c, (S)-(3-((4-(2-(Benzofuran-5-yl)-5-hydroxy-1H-benzo[d]imidazol-1-yl)pyrimidin-2-yl)amino)piperidin-1-yl)(cyclopropyl)methanone], the IC50 under setting [1] was determined as 287 nM.

In the case of `O=C(C1CC1)N1CCC[C@H](Nc2nccc(-n3c(-c4ccc(Cl)c(Cl)c4)nc4cc(O)ccc43)n2)C1` [13d, (S)-Cyclopropyl(3-((4-(2-(3,4-dichlorophenyl)-5-hydroxy-1H-benzo[d]imidazol-1-yl)pyrimidin-2-yl)amino)piperidin-1-yl)methanone], the IC50 under setting [1] stood at 128 nM.

In the case of `O=C(C1CC1)N1CCC[C@H](Nc2nccc(-n3c(-c4ccc(F)c(C(F)(F)F)c4)nc4cc(O)ccc43)n2)C1` [13e, (S)-Cyclopropyl(3-((4-(2-(4-fluoro-3-(trifluoromethyl)phenyl)-5-hydroxy-1H-benzo[d]imidazol-1-yl)pyrimidin-2-yl)amino)piperidin-1-yl)methanone], the IC50 under setting [1] came to 679 nM.

As to `O=C(C1CC1)N1CCC[C@H](Nc2nccc(-n3c(-c4ccc5ccccc5n4)nc4cc(O)ccc43)n2)C1` [13f, (S)-Cyclopropyl(3-((4-(5-hydroxy-2-(quinolin-2-yl)-1H-benzo[d]imidazol-1-yl)pyrimidin-2-yl)amino)piperidin-1-yl)methanone], the IC50 under setting [1] was found to be 161 nM.

In the case of `Oc1ccc2nc(-c3ccc4ccccc4c3)n(-c3ccnc(NC4CCOCC4)n3)c2c1` [22a, 2-(Naphthalen-2-yl)-1-(2-((tetrahydro-2H-pyran-4-yl)amino)pyrimidin-4-yl)-1H-benzo[d]imidazol-6-ol], the IC50 under setting [1] stood at 1430 nM.

Take `Oc1ccc2nc(-c3ccc4c(c3)OCCO4)n(-c3ccnc(NC4CCOCC4)n3)c2c1` [22b, 2-(2,3-Dihydrobenzo[b][1,4]dioxin-6-yl)-1-(2-((tetrahydro-2H-pyran-4-yl)amino)pyrimidin-4-yl)-1H-benzo[d]imidazol-6-ol]: the IC50 under setting [1] came out at 1550 nM.

`Oc1ccc2nc(-c3ccc4occc4c3)n(-c3ccnc(NC4CCOCC4)n3)c2c1` [22c, 2-(Benzofuran-5-yl)-1-(2-((tetrahydro-2H-pyran-4-yl)amino)pyrimidin-4-yl)-1H-benzo[d]imidazol-6-ol]: under setting [1], the IC50 is 2190 nM.

Take `Oc1ccc2nc(-c3ccc4ccccc4c3)n(-c3ccnc(NC4CCCCC4)n3)c2c1` [23a, 1-(2-(Cyclohexylamino)pyrimidin-4-yl)-2-(naphthalen-2-yl)-1H-benzo[d]imidazol-6-ol]: under setting [1], the IC50 came to 45 nM.

Regarding `Oc1ccc2nc(-c3ccc4c(c3)OCCO4)n(-c3ccnc(NC4CCCCC4)n3)c2c1` [23b, 1-(2-(Cyclohexylamino)pyrimidin-4-yl)-2-(2,3-dihydrobenzo[b][1,4]dioxin-6-yl)-1H-benzo [d]imidazol-6-ol], the IC50 under setting [1] was 281 nM.

Turning to `Oc1ccc2nc(-c3ccc4occc4c3)n(-c3ccnc(NC4CCCCC4)n3)c2c1` [23c, 2-(Benzofuran-5-yl)-1-(2-(cyclohexylamino)pyrimidin-4-yl)-1H-benzo[d]imidazol-6-ol], the IC50 under setting [1] was determined as 71 nM.

With `Oc1ccc2nc(-c3ccc(Cl)c(Cl)c3)n(-c3ccnc(NC4CCCCC4)n3)c2c1` [23d, 1-(2-(Cyclohexylamino)pyrimidin-4-yl)-2-(3,4-dichlorophenyl)-1H-benzo[d]imidazol-6-ol], the IC50 under setting [1] came to 110 nM.

In the case of `Oc1ccc2nc(-c3ccc(F)c(C(F)(F)F)c3)n(-c3ccnc(NC4CCCCC4)n3)c2c1` [23e, 1-(2-(Cyclohexylamino)pyrimidin-4-yl)-2-(4-fluoro-3-(trifluoromethyl)phenyl)-1H-benzo [d]imidazol-6-ol], the IC50 under setting [1] was 305 nM.

For the compound `Oc1ccc2nc(-c3ccc4ccccc4n3)n(-c3ccnc(NC4CCCCC4)n3)c2c1` [23f, 1-(2-(Cyclohexylamino)pyrimidin-4-yl)-2-(quinolin-2-yl)-1H-benzo[d]imidazol-6-ol], the IC50 under setting [1] was 424 nM.

For the compound `O=C(C1CC1)N1CCC[C@H](Nc2nccc(-n3c(-c4ccc5c(c4)OCCO5)nc4ccc(O)cc43)n2)C1` [26b, (S)-Cyclopropyl(3-((4-(2-(2,3-dihydrobenzo[b][1,4]dioxin-6-yl)-6-hydroxy-1H-benzo[d]imidazol-1-yl)pyrimidin-2-yl)amino)piperidin-1-yl)methanone], the IC50 under setting [1] came out at 114 nM.

Turning to `O=C(C1CC1)N1CCC[C@H](Nc2nccc(-n3c(-c4ccc5occc5c4)nc4ccc(O)cc43)n2)C1` [26c, (S)-(3-((4-(2-(Benzofuran-5-yl)-6-hydroxy-1H-benzo[d]imidazol-1-yl)pyrimidin-2-yl)amino)piperidin-1-yl)(cyclopropyl)methanone], the half-inhibitory concentration (IC50) under setting [1] is 42 nM.

Turning to `O=C(C1CC1)N1CCC[C@H](Nc2nccc(-n3c(-c4ccc(Cl)c(Cl)c4)nc4ccc(O)cc43)n2)C1` [26d, (S)-Cyclopropyl(3-((4-(2-(3,4-dichlorophenyl)-6-hydroxy-1H-benzo[d]imidazol-1-yl)pyrimidin-2-yl)amino)piperidin-1-yl)methanone], the IC50 was 22 nM under setting [1] and around 20 nM (read-out: JNK3 IC50).

For `O=C(C1CC1)N1CCC[C@H](Nc2nccc(-n3c(-c4ccc(F)c(C(F)(F)F)c4)nc4ccc(O)cc43)n2)C1` [26e, (S)-Cyclopropyl(3-((4-(2-(4-fluoro-3-(trifluoromethyl)phenyl)-6-hydroxy-1H-benzo[d]imidazol-1-yl)pyrimidin-2-yl)amino)piperidin-1-yl)methanone], the 50% inhibitory concentration (IC50) under setting [1] turned out to be 100 nM.

As to `O=C(C1CC1)N1CCC[C@H](Nc2nccc(-n3c(-c4ccc5ccccc5n4)nc4ccc(O)cc43)n2)C1` [26f, (S)-Cyclopropyl(3-((4-(6-hydroxy-2-(quinolin-2-yl)-1H-benzo[d]imidazol-1-yl)pyrimidin-2-yl)amino)piperidin-1-yl)methanone], under setting [1], the IC50 amounted to 189 nM.
